In general, inhibition refers to the drop in the measured response relative to a control, in per cent. As a reminder, the Ki is the dissociation constant of the complex between target and ligand, obtained from inhibition or displacement. Low values mean higher affinity, high ones lower affinity.

A value given as a limit tells only on which side of the number the result lay.

We go through 41 compounds from the Kinase Knowledgebase extract (Sharma et al. 2016).

This assay addresses CDK2 (UniProt P24941). The assay can be described thus: Enzyme Assay. The note with it: for inhibition: concentration not given here.

In the case of `CCN(CC)CCN(C)S(=O)(=O)c1ccc(Nc2nc(N)c(C(=O)c3c(F)cccc3F)s2)cc1`, the inhibition worked out at 27%.
Take `Nc1nc(Nc2ccc(S(=O)(=O)N3CCN(CC(=O)N4CCCC4)CC3)cc2)sc1C(=O)c1c(F)cccc1F`: the inhibition was found to be 14%.
Regarding `C=CCN1CCN(S(=O)(=O)c2ccc(Nc3nc(N)c(C(=O)c4c(F)cccc4F)s3)cc2)CC1`, the inhibition was found to be 6%.
`CCCOCCNS(=O)(=O)c1ccc(Nc2nc(N)c(C(=O)c3c(F)cccc3F)s2)cc1` registered a Ki of under 5 nM.
Turning to `Nc1nc(Nc2ccc(S(=O)(=O)N(CCO)CCO)cc2)sc1C(=O)c1c(F)cccc1F`, the inhibition was -1%.
`Nc1nc(Nc2ccc(S(=O)(=O)NCC3CCNCC3)cc2)sc1C(=O)c1c(F)cccc1F` gave a Ki of 13 nM.
`CN(CCO)S(=O)(=O)c1ccc(Nc2nc(N)c(C(=O)c3c(F)cccc3F)s2)cc1`: the inhibition came out at 28%.
In the case of `Nc1nc(Nc2ccc(S(=O)(=O)N3CCCC(CO)C3)cc2)sc1C(=O)c1c(F)cccc1F` (stereo unspecified), the inhibition was 30%.
Regarding `CN(CCc1ccccn1)S(=O)(=O)c1ccc(Nc2nc(N)c(C(=O)c3c(F)cccc3F)s2)cc1`, the inhibition turned out to be 16%.
For the compound `CN(CC(O)CO)S(=O)(=O)c1ccc(Nc2nc(N)c(C(=O)c3c(F)cccc3F)s2)cc1` (stereo unspecified), the inhibition was 15%.
Still for that read-out and setting: the value for `NC(=O)C1CCN(S(=O)(=O)c2ccc(Nc3nc(N)c(C(=O)c4c(F)cccc4F)s3)cc2)CC1` was 40%.
With `CN1CCN(S(=O)(=O)c2ccc(Nc3nc(N)c(C(=O)c4c(F)cccc4F)s3)cc2)CC1`, the inhibition turned out to be 18%.
As to `Nc1nc(Nc2ccc(S(=O)(=O)NCCCc3ccccc3)cc2)sc1C(=O)c1c(F)cccc1F`, the Ki was 3.6 nM.
Compound `Nc1nc(Nc2ccc(S(=O)(=O)NCc3cc4ccccc4o3)cc2)sc1C(=O)c1c(F)cccc1F` showed an inhibition constant Ki of 4.6 nM.
Take `CC(C)CCCCNS(=O)(=O)c1ccc(Nc2nc(N)c(C(=O)c3c(F)cccc3F)s2)cc1`: the Ki is 3.7 nM.
Turning to `COCCN(C)S(=O)(=O)c1ccc(Nc2nc(N)c(C(=O)c3c(F)cccc3F)s2)cc1`, the inhibition was 4%.
Consider `CN(Cc1cccnc1)S(=O)(=O)c1ccc(Nc2nc(N)c(C(=O)c3c(F)cccc3F)s2)cc1`, for which the inhibition was determined as 12%.
As to `N#CCCN(C1CC1)S(=O)(=O)c1ccc(Nc2nc(N)c(C(=O)c3c(F)cccc3F)s2)cc1`, the inhibition is 8%.
As for `CN(CCC1OCCO1)S(=O)(=O)c1ccc(Nc2nc(N)c(C(=O)c3c(F)cccc3F)s2)cc1`, the inhibition is 20%.
`CC(C)(O)CCCCNS(=O)(=O)c1ccc(Nc2nc(N)c(C(=O)c3c(F)cccc3F)s2)cc1` displayed an inhibition constant (Ki) of 0.48 nM.
Regarding `Nc1nc(Nc2ccc(S(=O)(=O)N3CCC(CCO)CC3)cc2)sc1C(=O)c1c(F)cccc1F`, the inhibition came out at 21%.
Turning to `CN(CCc1ccccc1)S(=O)(=O)c1ccc(Nc2nc(N)c(C(=O)c3c(F)cccc3F)s2)cc1`, the inhibition worked out at 9%.
For the compound `Cc1cc(F)c(C(=O)c2sc(Nc3ccc(S(=O)(=O)NCc4ccc(C)o4)cc3)nc2N)c(F)c1`, the Ki was under 10 nM.
On to `CN1CCC(N(C)S(=O)(=O)c2ccc(Nc3nc(N)c(C(=O)c4c(F)cccc4F)s3)cc2)CC1`, for which the inhibition is 9%.
On the same count and under the same terms, with `COCCN(CCOC)S(=O)(=O)c1ccc(Nc2nc(N)c(C(=O)c3c(F)cccc3F)s2)cc1` the figure was 8%.
The compound `Cn1cncc1CNS(=O)(=O)c1ccc(Nc2nc(N)c(C(=O)c3c(F)cccc3F)s2)cc1` showed a Ki of 6.9 nM.
On to `CN1CCC(N(C)S(=O)(=O)c2ccc(Nc3nc(N)c(C(=O)c4c(F)cccc4F)s3)cc2)C1` (stereo unspecified), for which the inhibition came to 22%.
Take `Nc1nc(Nc2ccc(S(=O)(=O)N3CCN(CCOCCO)CC3)cc2)sc1C(=O)c1c(F)cccc1F`: the inhibition is -1%.
With `CN(C)CCN(C)S(=O)(=O)c1ccc(Nc2nc(N)c(C(=O)c3c(F)cccc3F)s2)cc1`, the inhibition was 26%.
Turning to `Nc1nc(Nc2ccc(S(=O)(=O)N3CCN(CCN4CCOCC4)CC3)cc2)sc1C(=O)c1c(F)cccc1F`, the inhibition is 11%.
Same read-out and setting: the value for `CN(CCc1ccncc1)S(=O)(=O)c1ccc(Nc2nc(N)c(C(=O)c3c(F)cccc3F)s2)cc1` was 19%.
As for `CCOC(=O)CNS(=O)(=O)c1ccc(Nc2nc(N)c(C(=O)c3c(F)cccc3F)s2)cc1`, the inhibition constant (Ki) is 4.9 nM.
Take `CN(CCCCCCO)S(=O)(=O)c1ccc(Nc2nc(N)c(C(=O)c3c(F)cccc3F)s2)cc1`: the inhibition was 28%.
On the same count and under the same terms, with `COC(=O)CN(C)S(=O)(=O)c1ccc(Nc2nc(N)c(C(=O)c3c(F)cccc3F)s2)cc1` the figure was 18%.
As for `Nc1nc(Nc2ccc(S(=O)(=O)N3CCSCC3)cc2)sc1C(=O)c1c(F)cccc1F`, the inhibition was 23%.
On to `CN(CCC#N)S(=O)(=O)c1ccc(Nc2nc(N)c(C(=O)c3c(F)cccc3F)s2)cc1`, for which the inhibition came out at 27%.
With `Nc1nc(Nc2ccc(S(=O)(=O)N3CCN(c4ccc(F)cc4)CC3)cc2)sc1C(=O)c1c(F)cccc1F`, the inhibition is 37%.
In turn, `Nc1nc(Nc2ccc(S(=O)(=O)NCCc3cccc(Cl)c3)cc2)sc1C(=O)c1c(F)cccc1F` yielded a Ki of under 10 nM.
As to `CCN(CCO)S(=O)(=O)c1ccc(Nc2nc(N)c(C(=O)c3c(F)cccc3F)s2)cc1`, the inhibition amounted to 24%.
In the case of `CCN(CC)CCCN(C)S(=O)(=O)c1ccc(Nc2nc(N)c(C(=O)c3c(F)cccc3F)s2)cc1`, the inhibition was found to be 21%.
Consider `Nc1nc(Nc2ccc(S(=O)(=O)N3CCOCC3)cc2)sc1C(=O)c1c(F)cccc1F`, for which the inhibition was 27%.
